Laboratory results reported in paper PMC9572541, “Design, Synthesis and Biological Evaluation of Novel and Potent Protein Arginine Methyltransferases 5 Inhibitors for Cancer Therapy” (Molecules, 2022).

What was measured:
PRMT5 = target: T1, PRMT5 (Homo sapiens, UniProt O14744); assay: PRMT5 enzymatic activity inhibition assay (radioactive methylation, 3H-SAM to H4R3 peptide); type: biochemical; conditions: for inhibition at 0.1 µM: 100 nM compound, read-out: Inhibition Rate% @100 nM
T1 construct: The final concentrations of PRMT5 enzyme: 2.5 nm/L
T1 sequence (O14744 whole entry): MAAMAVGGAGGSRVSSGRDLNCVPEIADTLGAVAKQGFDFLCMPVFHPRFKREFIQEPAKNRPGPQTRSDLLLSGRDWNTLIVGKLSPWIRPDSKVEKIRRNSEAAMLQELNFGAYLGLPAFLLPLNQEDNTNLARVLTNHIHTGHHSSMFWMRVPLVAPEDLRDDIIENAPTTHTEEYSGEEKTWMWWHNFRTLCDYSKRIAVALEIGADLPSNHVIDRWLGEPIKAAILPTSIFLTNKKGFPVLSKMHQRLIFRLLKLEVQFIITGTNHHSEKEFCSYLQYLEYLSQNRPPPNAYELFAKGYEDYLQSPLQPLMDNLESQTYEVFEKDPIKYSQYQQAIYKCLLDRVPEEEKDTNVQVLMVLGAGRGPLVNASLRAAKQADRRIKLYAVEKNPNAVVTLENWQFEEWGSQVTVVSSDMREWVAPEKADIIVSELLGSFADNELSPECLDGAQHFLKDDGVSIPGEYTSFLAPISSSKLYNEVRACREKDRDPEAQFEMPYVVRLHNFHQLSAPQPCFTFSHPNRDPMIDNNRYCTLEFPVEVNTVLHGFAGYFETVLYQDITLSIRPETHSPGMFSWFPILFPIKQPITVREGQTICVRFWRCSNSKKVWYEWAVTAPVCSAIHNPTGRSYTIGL
T1 sequence (Q9BQA1 whole entry partner): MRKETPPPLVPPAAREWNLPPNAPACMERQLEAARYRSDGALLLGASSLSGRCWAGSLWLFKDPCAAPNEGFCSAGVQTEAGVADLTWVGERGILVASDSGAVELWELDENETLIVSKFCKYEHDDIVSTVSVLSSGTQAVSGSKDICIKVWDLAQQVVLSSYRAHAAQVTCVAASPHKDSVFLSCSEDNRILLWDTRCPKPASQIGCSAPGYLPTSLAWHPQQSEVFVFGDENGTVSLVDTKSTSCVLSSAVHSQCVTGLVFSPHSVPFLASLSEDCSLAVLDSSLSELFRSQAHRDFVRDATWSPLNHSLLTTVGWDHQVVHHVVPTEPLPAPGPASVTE
Protocol: The PRMT5 enzymatic activity assay was conducted by Chempartner Life science. The final concentrations of PRMT5 enzyme: 2.5 nm/L; ^3H-SAM: 0.3 μM/L; histone peptide (H4R3S1ac): 0.3 μM/L. The protocol of radioactive methylation assay was as follows: (1) Prepare 1× assay buffer (modified Tris Buffer). (2) Transfer compounds to assay plate using Echo in 100% DMSO. DMSO’s final fraction is 1%. (3) Prepare enzyme and ^3H-SAM Mix solution in 1× assay buffer. (4) Prepare substrate (peptide sequence Ac-[…]-K(Biotin)) solution in 1× assay buffer. (5) Transfer 15 μL of enzyme and ^3H-SAM solution to assay plate. (6) Incubate at room temperature for 60 min. (7) Add 10 μL of substrate solution to each well to start the reaction, and for low control transfer 10 μL of 1× assay buffer. (8) Incubate at room temperature for 120 min. (9) Add cold SAM in 1× assay buffer to make the stop mix. (10) Stop reaction with addition of 5 µL per well of stop solution. (11) Transfer 25 µL of volume per well to Flash plate from assay plate. (12) Incubate for 1 h minimum at room temperature.
(13) Read plate on Micro beta. (14) Data process—get the data in Excel to obtain inhibition values using Equation (1).Inhibitory rate% = (Max-Signal)/ (Max-Min) × 100(1)
Fit the data in XL-Fit to obtain IC50 values using Equation (2): Y = Bottom + (Top-Bottom)/(1 + (IC50/X) […]) Y is% inhibition and X is compound concentration(2)

MV-4-11 cells = assay: Anti-proliferation CellTiter-Glo assay, MV-4-11; type: cell-based; conditions: Homo sapiens, MV4-11, 12th day
Source text: (§1) MV-4-11 and MDA-MB-468 cell lines were used to evaluate the anti-proliferative activities of the selected target compounds (CellTiter-Glo assay), and AML-12 hepatocytes were selected to evaluate the toxicity of the compounds.
(§2) MV-4-11 and MDA-MB-468 cell line were derived from Cell Resources Center of Shanghai Academy of life sciences (Shanghai, China). AML-12 cell line was brough from Nanjing Lixing Biotechnology Co. Ltd. (Nanjing, China). MDA-MB-468 cell line was maintained in Dulbecco’s Modified Eagle Medium (DMEM, KeyGEN Bio) that contained 10% FBS (Biochanel, China), MV-4-11 cell line was maintained in Iscove’s Modified Dulbecco Medium containing; 10% FBS (Biochannel, China), AML-12 cell line was maintained in DMEM/F-12 (1:1) (KeyGEN, China; 1% ITS Liquid Media Supplement (Sigma, America), dexamethasone 40 ng/mL (Sigma, USA) and 10% FBS (Biochannel, China). All cells were grown in a humidified incubator containing 5% carbon dioxide at 37 ℃. All compounds were dispersed in dimethyl sulfoxide (Sigma), the concentration of the reserve solution was 10 mmol/L and the solution was stored in a refrigerator at −20 ℃. SDMA (# 13222S), β- Tubulin (#2146S) and horseradish peroxidase (HRP)-linked secondary antibodies anti-rabbit or anti-mouse IgG were purchased from Cell Signaling Technology (CST), and the anti-PRMT5 (ab109451) antibody was purchased from ABCAM.
(§3) The antiproliferative activities of compounds in vitro were measured by CellTiter-Glo (CTG) assay (Promega, America). In linear/log-phase growth, cultured MV-4-11 cells were split to with seeding density of 2 × 10^5 cells/mL in 1–20 mL of media, depending on the yield required at the end of the growth period. At the conclusion of each treatment period, cells were harvested by centrifugation (4 min, 1000 rpm), and cell pellets were rinsed twice with PBS before being research further processing. Afterwards, cells were plated in 96-well plates with a density of 500 cells/well in […] media. After six hours incubation, compounds treatment was performed. Half of the culture medium was moved and re-plated with fresh media with fresh compound after 6 days. On the 12th day, Cell Titer-Glo Luminescent Cell Viability assays (Promega, USA) were used to determine the viable cell number, and luminescence was recorded using the Envision Multilabel Plate Readers (PerkinElmer). The concentration dependence curves were determined at each time point using GraphPad Prism 8.0 software.

AML-12 hepatocytes = assay: Toxicity on normal AML-12 hepatocytes; type: cell-based; conditions: Mus musculus, AML12; for inhibition at 10 µM: read-out: AML-12 Inhibition Rate% @10 μM; for inhibition at 20 µM: read-out: AML-12 Inhibition Rate% @20 μM
Source text: as §1
as §2, with “ABCAM. […]” for “ABCAM.”

MDA-MB-468 cells = assay: Anti-proliferation CellTiter-Glo assay, MDA-MB-468; type: cell-based; conditions: Homo sapiens
Source text: as §1, §2, §3

MV-4-11 xenograft = MV-4-11 xenograft mouse model; type: in vivo, BALB/c nude mice; conditions: 10 mg/kg, twice daily (BID), 28 days
Protocol: Based on the excellent enzymatic and anti-proliferative activities of compound 20 in vitro, we then evaluated antitumor activities in vivo in an MV-4-11 xenograft mouse model.
Male BALB/c nude mice (6–8 weeks old) were purchased from Hangzhou Medical College. All animals were housed in a specific pathogen-free facility. MV-4-11 cells (5 × 10^6) suspended in 0.2 mL of PBS were inoculated subcutaneously on the right flank of each BALB/c nude mouse. Mice were divided randomly (5 mice for each group) into two treatment groups and a control group when the size of the tumors reached 150 mm^3. […] The tumor volume and body weight were measured every 2 days. The tumor volume was determined with Vernier calipers and calculated as follows: tumor volume = a × b^2/2, where a and b stand for the longest and shortest diameters measured by the vernier caliper, respectively. All animal experiments have been approved by Pharmaceutical Experiment Center of China Pharmaceutical University.
(A) The resulting tumors excised from the animals after treatment. […] (C) The nude mouse body weight was measured every 2 days. (D) The tumor volumes of the nude mice were measured and calculated once every 2 days.

[1] = no reference given; cited from earlier work

Row | IC50 (PRMT5) | inhibition at 0.1 µM (PRMT5) | GI50 (MV-4-11 cells) | GI50 (MDA-MB-468 cells) | Structure (SMILES) | inhibition at 10 µM (AML-12 hepatocytes) | inhibition at 20 µM (AML-12 hepatocytes) | TGI (MV-4-11 xenograft) | adverse events in clinical studies [1]
1 | 8.8 ± 0.4 nM | 81 ± 3.2% | 29.7 ± 12.8 nM | 286 ± 5.9 nM | CCn1c2c(c3cc(C(=O)NC[C@H](O)CN4CCc5ccccc5C4)ccc31)CCCC2 [Compound 14, (S)-N-(3-(3,4-dihydroisoquinolin-2(1H)-yl)-2-hydroxypropyl)-9-ethyl-2,3,4,9-tetrahydro-1H-carbazole-6-carboxamide] | -67 ± 11.3% | 17.7 ± 3.5% |  | 
2 | 4.2 ± 2.1 nM | 79 ± 4% | 39.5 ± 1.9 nM | 24.9 ± 20.2 nM | CCCn1c2c(c3cc(C(=O)NC[C@H](O)CN4CCc5ccccc5C4)ccc31)CCCC2 [Compound 15] | -21.5 ± 2% | 77.3 ± 1.6% |  | 
3 | 7.5 ± 0.3 nM | 80 ± 1% | 16 ± 2.3 nM | 99.1 ± 8.3 nM | O=C(NC[C@H](O)CN1CCc2ccccc2C1)c1ccc2c(c1)c1c(n2CC2CCC2)CCCC1 [Compound 19, (S)-9-(cyclobutylmethyl)-N-(3-(3,4-dihydroisoquinolin-2(1H)-yl)-2-hydroxypropyl)-2,3,4,9-tetrahydro-1H-carbazole-6-carboxamide] | 32.9 ± 5.4% | 100.2 ± 0.9% |  | 

The remaining lines, values behind:

Row | Structure (SMILES) | IC50 (PRMT5) | inhibition at 0.1 µM (PRMT5) | GI50 (MV-4-11 cells) | GI50 (MDA-MB-468 cells) | inhibition at 10 µM (AML-12 hepatocytes) | inhibition at 20 µM (AML-12 hepatocytes) | TGI (MV-4-11 xenograft) | adverse events in clinical studies [1]
4 | O=C(NC[C@H](O)CN1CCc2ccccc2C1)c1ccc2[nH]c3ccccc3c2c1 [Compound 1, (S)-N-(3-(3,4-dihydroisoquinolin-2(1H)-yl)-2-hydroxypropyl)-9H-carbazole-3-carboxamide] | 13 ± 8.9 nM | 73 ± 0.7% | 271 ± 152 nM | 552 ± 33 nM | 16.7 ± 10.4% | 97.5 ± 0.1% |  | 
5 | O=C(NC[C@H](O)CN1CCc2ccccc2C1)c1ccc2[nH]c3c(c2c1)CCCC3 [Compound 7, (S)-N-(3-(3,4-dihydroisoquinolin-2(1H)-yl)-2-hydroxypropyl)-2,3,4,9-tetrahydro-1H-carbazole-6-carboxamide] | 18.6 ± 0.9 nM | 75 ± 0.7% | 54.1 ± 20.5 nM | > 250 nM | 46.4 ± 3.7% | 98.4 ± 0.7% |  | 
6 | O=C(NC[C@H](O)CN1CCc2ccccc2C1)c1ccc2[nH]c3c(c2c1)CCCCCC3 [Compound 10, (S)-N-(3-(3,4-dihydroisoquinolin-2(1H)-yl)-2-hydroxypropyl)-6,7,8,9,10,11-hexahydro-5H-cycloocta[b]indole-2-carboxamide] |  | 71 ± 1.3% | 42.4 ± 2.6 nM | 126 ± 70.9 nM | 97.9 ± 1.2% | 100.7 ± 0.1% |  | 
7 | Cn1c2c(c3cc(C(=O)NC[C@H](O)CN4CCc5ccccc5C4)ccc31)CCCC2 [Compound 13, (S)-N-(3-(3,4-dihydroisoquinolin-2(1H)-yl)-2-hydroxypropyl)-9-methyl-2,3,4,9-tetrahydro-1H-carbazole-6-carboxamide] | 10 ± 4.4 nM | 75 ± 0.7% | 163.1 ± 0.3 nM | 147 ± 2.5 nM | 16.3 ± 3.4% | 21.2 ± 2% |  | 
8 | CC(=O)N1CCC(Nc2cc(C(=O)NC[C@H](O)CN3CCc4ccccc4C3)ncn2)CC1 [GSK-3326595, reference compound] |  |  | 9.3 ± 2.8 nM | 37.3 ± 3 nM | 22.9 ± 3% | 26.5 ± 2% | 39.3% | grade 3 or 4 adverse events
